Data published in patent US20080039422A1, “Vitamin B12-Containing Compositions and Methods of Use” (Transition Therapeutics Inc., priority 2004, published 2008).
“And” between values parts separate entries of the source, which are not always exact repeats. Equal values may be shown once.

How the values were obtained:
[1] = Solubility study (saturated solubility of CN-Cbl, 25°C, 16 hours, UV); format: physicochemical
Excerpt: During the solubility study the following were investigated: • cosolvents (mixtures of ethanol and propylene glycol) • in-situ salt formers • surfactants • pH effects • in-situ salt formers and cosolvents Solubility Study Method
Results of CN-Cbl Solubility in Water and Determination of Equilibrium Time

[2] = Time course of CN-Cbl in solution (8 hours, 200 hours); format: physicochemical
Method: To establish more precise time courses, ten samples were prepared containing various challenge amounts of CN-Cbl in solutions containing ethanol and propylene glycol. Five of the solutions contained 15% ethanol and 20% propylene glycol and five contained 20% ethanol and 40% propylene glycol. Within each set of five, they were challenged with: (1) 50 mg/ml CN-Cbl; (2) 75 mg/ml CN-Cbl; (3) 100 mg/ml CN-Cbl; (4) 150 mg/ml CN-Cbl; and (5) 200 mg/ml CN-Cbl. To generate the solutions, the methods described above were modified by heating the solutions for 30 consecutive minutes at 60° C., after which time there was no visible precipitate. Samples were also retained within the same tubes for the duration of the study, rather than transferring supernatant fractions to fresh tubes at each time point. The concentrations were recorded eleven times; seven times within the first eight hours following the initial combination and four times over the subsequent 192 hours. The concentrations were measured at 0.5 hours, 1.0 hour, 2.0 hours, 3.0 hours, 4.0 hours, 6.0 hours, 8.0 hours, 24.0 hours, 32.0 hours, 100 hours, and 200 hours. The concentration of CN-Cbl was measured and the percentage of CN-Cbl remaining in solution was calculated.

Substance: cyanocobalamin [CN-Cbl]
- pH of CN-Cbl Solution ([1]; Ref. FD4068 39B, 10% v/v Ethanol, 40% v/v Propylene Glycol, 0.1 M Choline, Initial pH 8.99): 8.01
- Saturated Solubility ([1]; Ref. FD4068 39C, 10% v/v Ethanol, 40% v/v Propylene Glycol, 0.1 M Choline, pH adjusted with hydrochloric acid, Initial pH 7.43): 63 mg/mL
- pH of CN-Cbl Solution ([1]; Ref. FD4068 39C, 10% v/v Ethanol, 40% v/v Propylene Glycol, 0.1 M Choline, Initial pH 7.43): 8.00
- Saturated Solubility ([1]; Ref. FD4068 42A, Choline 0.055 M (6.71 mg/ml), 40% v/v propylene glycol, 10% v/v ethanol): 80.8 mg/ml and 0.060 M
- pH of CN-Cbl Solultion ([1]; Ref. FD4068 42A, Choline 0.055 M, 40% v/v propylene glycol, 10% v/v ethanol, Initial pH 12.49): 12.44
- Saturated Solubility ([1]; Ref. FD4068 42B, Choline 0.068 M (8.23 mg/ml), 40% v/v propylene glycol, 10% v/v ethanol): 82.8 mg/ml and 0.061 M
- pH of CN-Cbl Solultion ([1]; Ref. FD4068 42B, Choline 0.068 M, 40% v/v propylene glycol, 10% v/v ethanol, Initial pH 12.63): 12.53
- Saturated Solubility ([1]; Ref. FD4068 43A, Choline 0.111 M (13.41 mg/ml), 40% v/v propylene glycol, 10% v/v ethanol): 92.1 mg/ml and 0.068 M
- pH of CN-Cbl Solultion ([1]; Ref. FD4068 43A, Choline 0.111 M, 40% v/v propylene glycol, 10% v/v ethanol, Initial pH 12.80): 12.76
- pH of CN-Cbl Solution ([1]; Ref. FD4068 89B, 0.15 ml 2m HCl + 0.025M pH 5.6 citrate buffer, Choline 0.044 M): 6.97
- Saturated Solubility ([1]; Ref. FD4068 89B, 0.15 ml 2m HCl + 0.025M pH 5.6 citrate buffer, Choline 0.044 M (5.34 mg/ml), Initial pH 7.03): 52.6 mg/mL
- pH of CN-Cbl Solution ([1]; Ref. FD4068 96, 0.2 ml 2M HCl + 0.025M pH 7.0 phosphate buffer, Choline 0.044 M): 7.96
- Saturated Solubility ([1]; Ref. FD4068 96, 0.2 ml 2M HCl + 0.025M pH 7.0 phosphate buffer, Choline 0.044 M (5.34 mg/ml), Initial pH 8.10): 54.5 mg/mL
- pH of CN-Cbl Solution ([1]; Ref. FD4068 102A, 0.4m 2M HCl + 0.025M pH 6.8 phosphate buffer, Choline 0.088 M): 7.97
- Saturated Solubility ([1]; Ref. FD4068 102A, 0.4m 2M HCl + 0.025M pH 6.8 phosphate buffer, Choline 0.088 M (10.67 mg/ml), Initial pH 8.12): 58.5 mg/mL
- pH of CN-Cbl Solution ([1]; Ref. FD4068 103, no buffer, pH adjusted with HCl, Choline 0.044 M): 7.21
- Saturated Solubility ([1]; Ref. FD4068 103, no buffer, pH adjusted with HCl, Choline 0.044 M (5.34 mg/ml), Initial pH 8.05): 54.6 mg/mL
- Saturated Solubility ([1]; Ref. FD4068 107A, Choline chloride 0.044 M (6.14 mg/ml, Molar Ratio 1:1), 40% v/v propylene glycol, 10% v/v ethanol, pH adjusted to 8 with sodium hydroxide): 53.2 mg/mL
- pH of CN-Cbl Solution ([1]; Ref. FD4068 107A, Choline chloride 0.044 M, 40% v/v propylene glycol, 10% v/v ethanol): 6.36
- Saturated Solubility ([1]; Ref. FD4068 108B, Choline chloride 0.221 M (30.86 mg/ml, Molar Ratio 1:5), 40% v/v propylene glycol, 10% v/v ethanol, pH adjusted to 8 with sodium hydroxide): 60.1 mg/mL
- pH of CN-Cbl Solution ([1]; Ref. FD4068 108B, Choline chloride 0.221 M, 40% v/v propylene glycol, 10% v/v ethanol): 6.51
- Saturated Solubility ([1]; Ref. FD4068 109A, Choline chloride 0.133 M (18.57 mg/ml, Molar Ratio 1:3), 40% v/v propylene glycol, 10% v/v ethanol, pH adjusted to 8 with sodium hydroxide): 57.4 mg/mL
- pH of CN-Cbl Solution ([1]; Ref. FD4068 109A, Choline chloride 0.133 M, 40% v/v propylene glycol, 10% v/v ethanol): 6.63
- Saturated Solubility ([1]; Ref. FD4068 110A, Choline chloride 0.443 M (61.81 mg/ml, Molar Ratio 1:10), 40% v/v propylene glycol, 10% v/v ethanol, pH adjusted to 8 with sodium hydroxide): 66.6 mg/mL
- pH of CN-Cbl Solution ([1]; Ref. FD4068 110A, Choline chloride 0.443 M, 40% v/v propylene glycol, 10% v/v ethanol): 6.40
- Saturated Solubility ([1]; Ref. FD4068 112A, Choline chloride 0.443 M (61.81 mg/ml, 1:10), 40% v/v propylene glycol, 10% v/v ethanol, 0.025 M phosphate buffer pH 8): 66.8 mg/mL
- pH of CN-Cbl Solution ([1]; Ref. FD4068 112A, Choline chloride 0.443 M, 40% v/v propylene glycol, 10% v/v ethanol, 0.025 M phosphate buffer): 7.93
- Saturated Solubility ([1]; Ref. FD4068 112B, Choline chloride 0.184 M (25.75 mg/ml, 1:5), 40% v/v propylene glycol, 10% v/v ethanol, 0.025 M phosphate buffer pH 8): 62.7 mg/mL
- pH of CN-Cbl Solution ([1]; Ref. FD4068 112B, Choline chloride 0.184 M, 40% v/v propylene glycol, 10% v/v ethanol, 0.025 M phosphate buffer): 7.97
- Saturated Solubility ([1]; Water, Equilibrium Time 16 hours): 15.25 mg/mL
- Saturated Solubility ([1]; Water, Equilibrium Time 24 hours): 15.47 mg/mL
- Saturated Solubility ([1]; Water, Equilibrium Time 40 hours): 15.27 mg/mL
- Saturated Solubility, mean ([1]; Water, mean of equilibrium times 16, 24, 40 hours): 15.33 mg/mL
- pH of CN-Cbl Solution ([1]; saturated in 0.1 M Choline (12.12 mg/ml)): 12.5 and 12.49
- pH of CN-Cbl Solution ([1]; saturated in 0.1 M Diethanolamine (10.51 mg/ml)): 10.15
- pH of CN-Cbl Solution ([1]; saturated in 0.1 M L-arginine (17.42 mg/ml)): 10.22
- pH of CN-Cbl Solution ([1]; saturated in 0.1 M L-lysine (16.42 mg/ml)): 9.59
- pH of CN-Cbl Solution ([1]; saturated in 0.1 M Meglumine (19.52 mg/ml)): 10.70
- pH of CN-Cbl Solution ([1]; saturated in 0.1 M Triethanolamine (14.92 mg/ml)): 9.26
- pH of CN-Cbl Solution ([1]; saturated in 0.1 M Triethylamine (10.12 mg/ml)): 11.42
- CN-Cbl in solution over time ([2]; challenge 150 and 200 mg/ml, greater in 15% ethanol/20% PG than in 20% ethanol/40% PG): some precipitation
- CN-Cbl in solution over time ([2]; first eight hours (held true over 200 hours), challenge 50, 75 and 100 mg/ml, 15% ethanol/20% PG and 20% ethanol/40% PG): remained in solution
